Values quoted from earlier work in US6528539B1, “Stable formulation containing fumagillin” (Sanofi-Synthelabo, priority 1999, dated 2003).

Conditions: fumagillin as such; must be stored at −80° C.; literature studies named in b6

stability at ambient temperature: highly unstable at ambient temperature
Compound: COC1C(OC(=O)/C=C/C=C/C=C/C=C/C(=O)O)CCC2(CO2)C1[C@@]1(C)O[C@@H]1CC=C(C)C (stereo in doubt) [Fumagillin, 2,4,6,8-decatetraenedioic acid mono[4-(1,2-epoxy-1,5-dimethyl-4-hexenyl)-5-methoxy-1-oxaspiro[2.5]oct-6-yl] ester]
